Columns and labels:
Type in all cases: cell-based
[1] = system: EGFR; test: Microsphere (Luminex) detection of tyrosine-phosphorylated EGFR in lysates of activated A431 cells; details: for detection of tyrosine phosphorylated EGFR in lysates of activated cells: anti-EGFR coated microspheres, 4G10-biotin, streptavidin-R-phycoerythrin
Procedure: A431 cells were grown to 80-90% confluency in T75 flasks. Cells were washed once with fresh media (37° C.). For treatment, sodium pervanadate was prepared as described above and diluted into DMEM to 1 mM final concentration. Two ml of 1 mM sodium pervanadate containing media, prewarmed to 37° C., was added per T75 flask and the cell monolayer was covered with it. Cells were incubated at 37° C. for 5 min. Activated cells were lysed and processed as described below.
For pathway specific activation of A431 cells, which overexpress the epidermal growth factor receptor (EGFR), the cells were treated with epidermal growth factor (EGF). Cells were grown to about 80-90% confluency in a T75 flask. The optimal concentration of EGF for activation of the EGFR pathway in A431 cells was determined to be 100 μM. EGF was diluted in DMEM containing 10% serum. Two ml of the diluted EGF (100 μM) was layered on top of the cell monolayer. Cells were incubated at 37° C. for 15 min for activation. Activated cells were lysed and processed as described below.
A431 cells were lysed by adding 1 ml of 1× lysis buffer (1% NP-40 and protease inhibitor cocktail in PBS), pre-chilled on ice, per T75 flask. Cells were removed by scraping with a cell scraper. Lysate was vortexed immediately after addition of lysis buffer and incubated on ice for 15 min. While incubating on ice, it was mixed by vortexing every 5 min. […]
(§1) After incubation with the lysate, liquid was drained from the bottom of plate, under vacuum, on a suction apparatus (Millipore Corporation) designed to fit these plates. […] Washed microspheres were resuspended in 100 μl of wash buffer per well and analyzed in the Luminex-100™ instrument, according to the manufacturer's instructions.
Later experiments focused on analyzing multiple proteins in another pathway simultaneously, as described below. (It will be evident that multiple proteins in the EGFR pathway or any other pathways or combinations thereof could similarly be analyzed simultaneously.)

[2] = system: Lck; test: Five-plex microsphere (Luminex) assay of tyrosine phosphorylation in activated Jurkat T-cells: Lck; details: lysate from pervanadate treated Jurkat cells, 37° C., 5 min; FIG. 2
Procedure: (§2) Jurkat cells were resuspended to a density of 1×10^8 cells/ml in PBS. Cells were pre-warmed to 37° C. for 15 min. To each milliliter of cell suspension, 40 μl of sodium pervanadate was added. Cells were mixed and immediately incubated at 37° C. for 5 min. Activated cells were lysed, and cell lysates were processed as described below.
(§3) For pathway specific activation, Jurkat cells were treated with anti-CD3-receptor monoclonal antibody (UCHT1) (Becton Dickenson, San Diego, Calif.). Cells were resuspended in PBS at a density of 1×10^8/ml and prewarmed to 37° C. Anti-CD3 antibody was added to a final concentration of 5 μg/ml. Cells were mixed and incubated at 37° C. for various times ranging from 5 sec to 10 min. Optimal phosphorylation of most tyrosine kinases and their substrates in the T-cell receptor pathway occurred in 5 min.
(§4) Jurkat cells were lysed by adding a volume of 2× lysis buffer (2% NP-40 and protease inhibitor cocktail (both from Roche Diagnostics, Mannheim, Germany) in PBS), pre-chilled on ice, equal to the volume of the resuspended cells. […]
as §1, with “instructions. […]” for “instructions.”

[3] = system: Zap70; test: Five-plex microsphere (Luminex) assay of tyrosine phosphorylation in activated Jurkat T-cells: Zap70; details: lysate from pervanadate treated Jurkat cells, 37° C., 5 min; FIG. 2
Procedure: as §2, §3, §4
as §1, with “instructions. […]” for “instructions.”

[4] = system: LAT; test: Five-plex microsphere (Luminex) assay of tyrosine phosphorylation in activated Jurkat T-cells: LAT; details: lysate from pervanadate treated Jurkat cells, 37° C., 5 min; FIG. 2
Procedure: as §2, §3, §4
as §1, with “instructions. […]” for “instructions.”

[5] = system: Lck; test: Immunoprecipitation and Western analysis with biotinylated 4G10, Jurkat lysates: Lck; details: Jurkat cell lysates, treated vs untreated; FIG. 3
Procedure: (§5) To confirm that microspheres coated with antibodies to Lck, Zap70 and LAT captured predominantly specific proteins in cell lysates, immunoprecipitation was performed with these antibodies. Cell lysates (1×10^8 cells in 1 ml) were incubated with 2.5 μg of each antibody for 1 hr. The immune complexes were captured with Protein G conjugated sepharose (Sigma Chemicals, St. Louis, Mo.) and resolved by standard polyacrylamide gel electrophoresis (PAGE). Resolved proteins were transferred to PVDF membrane (BiORad, Hercules, Calif.) and probed with biotinylated 4G10 (1:2000 dilution in 5% non-fat powdered milk in PBS). Phosphorylated bands were finally detected by ABC Detection Reagent (Vector Laboratories, Burlingame, Calif.) and Chemiluminescent Substrate (Pierce). […] These phosphorylated proteins predominated in their respective immunoprecipitates.

[6] = system: Zap70; test: Immunoprecipitation and Western analysis with biotinylated 4G10, Jurkat lysates: Zap70; details: Jurkat cell lysates, treated vs untreated; FIG. 3
Procedure: as §5

[7] = system: LAT; test: Immunoprecipitation and Western analysis with biotinylated 4G10, Jurkat lysates: LAT; details: Jurkat cell lysates, treated vs untreated; FIG. 3
Procedure: as §5

| Substance | detection of tyrosine phosphorylated EGFR in lysates of activated cells [1] | fluorescent signal from streptavidin-phycoerythrin, anti-Lck coated microspheres [2] | fluorescent signal from streptavidin-phycoerythrin, anti-Zap70 coated microspheres [3] | fluorescent signal from streptavidin-phycoerythrin, anti-LAT coated microspheres [4] | phosphorylated band of Lck in immunoprecipitate [5] | phosphorylated band of Zap70 in immunoprecipitate [6] | phosphorylated band of LAT in immunoprecipitate [7] | optimal concentration of EGF for activation of the EGFR pathway ([1]; 37° C., 15 min) [µM] |
| --- | --- | --- | --- | --- | --- | --- | --- | --- |
| sodium pervanadate | could be detected | strong fluorescent signal | strong fluorescent signal | strong fluorescent signal | detected only in lysates from cells treated with sodium pervanadate | detected only in lysates from cells treated with sodium pervanadate | detected only in lysates from cells treated with sodium pervanadate |  |
| epidermal growth factor [EGF] | could be detected |  |  |  |  |  |  | 100 |
